Here are results for two substances from PMC7821381, “Multi-Targeted Anticancer Activity of Imidazolate Phosphane Gold(I) Compounds by Inhibition of DHFR and TrxR in Breast Cancer Cells” (Frontiers in Chemistry, 2021).

The subject of one assay is MDA-MB231 cells. In words: MTT cell viability assay on MDA-MB231 cells. The assay is classed as cell-based, human. The conditions noted are these: MDA-MB231, 48 h, ± S. D. The text has this:
(§1) Human MDA-MB-231 (ER–/PR–/HER2–) and SK-BR-3 (ER–/PR–/HER2+) cells were obtained from American Type Culture Collection (Rockville, MD) and cultured in Dulbecco's Modified Essential Medium (DMEM, Gibco, Life Technologies) supplemented with 10% fetal bovine serum (FBS, Gibco, Life Technologies) and 1% penicillin–streptomycin (Gibco, Life Technologies). A17 cells were established from a spontaneous lobular carcinoma that arose in an FVB/neuT mouse (Galiè et al., [2005]), and maintained in DMEM plus 20% FBS and 1% penicillin-streptomycin. Cells were cultured at 37°C under humidified atmosphere with 5% CO2.
(§2) Stock solutions were prepared for each gold(I) compound (50 mM) using dimethyl sulfoxide (DMSO) (Sigma-Aldrich) as solvent. The effects of gold(I) compounds on SKBR3, A17 and MDA-MB231 cells viability were evaluated by seeding, respectively, 10, ^*10^3, 2.5 ^*10^3, 7, ^*10^3 cells/well in 96 wells plates in complete medium (DMEM supplemented with FBS) and compared to those of cisplatin. The day after, fresh medium containing vehicle alone (DMSO, 1 % v/v final concentration) or increasing concentrations of each compound ranging from 0.1 to 100 μM was added. Cell viability was determined using a MTT [3-(4,5-dimethylthiazol-2-yl)-2,5-diphenyl-2H-tetrazolium bromide Sigma Aldrich, St. Louis, MO] assay, which is based on the conversion of MTT to formazan crystals by mitochondrial enzymes, after 24, 48, and 72 h. The formazan deposits were dissolved in DMSO and the absorbance of each well was measured at 540 nm in Multiskan Ascent 96/384 Plate Reader. Each drug concentration was evaluated with 8 replicates and each experiment was repeated three times. At the end of the experiments a dose–response curve was plotted, and the IC50 concentrations were determined. […] Quantitative data are presented as means ± SEM. […]
(§3) IC50 values were calculated for each of the cell lines tested, by fitting the concentration-effect curves data obtained in the three experiments with the sigmoid-Emax model using nonlinear regression, weighted by the reciprocal of the square of the predicted effect.
For orientation: Formazan colour is commonly taken as a measure of viable cells.

Another assay relates to A17 cells. Put plainly: MTT cell viability assay on A17 cells. The conditions noted are these: A17, 48 h, ± S. D. Type of assay: cell-based, murine.
Excerpt: as §1, §2, §3

For assay [1], the system named is thioredoxin reductase (TrxR). The conditions noted are these: for Specific enzymatic activity of TrxR: SKBR3, 12 h treatment, 8 μM (maximum inhibition), control 4.07 ± 0.32; for TrxR residual activity: SKBR3 cells, versus control cells. The protocol:
The assay was performed as previously reported (Galassi et al., [2012]) in 0.2 M Na, K-phosphate buffer (pH 7.4) containing 2 mM EDTA. The assay contained 0.12 mM NADPH and different amounts of cell lysate. The reaction was initiated by the addition of 3 mM 5,5′-dithiobis (2-nitrobenzoic acid) (DTNB) and the increase of absorbance was monitored at 412 nm over 5 min at 25°C.

In a further assay the test system is calf thymus DNA (ct-DNA). Put plainly: UV-Vis absorption titration with ct-DNA. Type of assay: binding. The conditions noted are these: as restated in the discussion. The protocol: Stock solutions of calf thymus DNA (ct-DNA) (Sigma–Aldrich) were prepared by dissolving the DNA powder overnight in 10 mM Tris–HCl pH 7.4, 10 mM NaCl and incubated under stirrer at 4°C for 12h. […] The concentration of the ct-DNA solution was determined by UV absorbance at 260 nm. The molar absorption coefficient at 260 nm, was taken as 6,600 M^−1 cm^−1 (Marmur, [1961]). Stock solutions of gold(I) complexes (compounds 5 and 6) were prepared in DMSO. Absorption titration experiments performed with fixed concentrations of the different gold(I) complexes (25 μM, in 10 mM Tris–HCl pH 7.4, 10 mM NaCl), gradually increasing the concentration of DNA. After addition of DNA to the compounds, the resulting solution was allowed to […] equilibrate at room temperature for 5 min. Then, the sample solution was scanned in the range 220–600 nm. For the different compounds the binding constant (Kb) was determined from the spectroscopic titration data using the following equation
[DNA]/(εa-εf)=[DNA]/(εb-εf)+1/Kb(εb-εf),Equation 1
where [DNA] is the concentration of DNA in base pairs, the apparent absorption coefficient (εa) was obtained by calculating Aobsd/[compound]. The terms εf and εb correspond to the extinction coefficient of free (unbound) and the fully bound compound, respectively. A plot of [DNA]/(εa-εf) vs. [DNA] will give a slope 1/(εb-εf) and an intercept 1/Kb(εb-εf). […]

The next assay concerns EB-ct-DNA. Put plainly: Competitive binding fluorescence study with EtBr (EB-ct-DNA). Details: species or system calf. The conditions noted are these: competitive EtBr displacement, fluorescence quenching, pH 7.4. The text has this: EtBr weakly emits fluorescence in aqueous solutions (Pasternack et al., [1983]), however in presence of ct-DNA strongly emits at ~600 nm due to strong intercalation between adjacent DNA base pairs. Ethidium bromide (EB) can be employed as a probe for the spectroscopic study of the interaction between DNA and intercalating species because of a 24-fold decrease in its fluorescence when displaced from an intercalation site by the addition of a competitive binding molecule probably due to decreasing in the number of binding sites accessible to EtBr (Tong et al., [2012]). […] Fluorescence quenching spectra were recorded using a Hitachi 4,500 spectrofluorometer with an excitation wavelength of 490 nm and emission spectrum 500–700 nm. The fluorescence spectra were recorded and the fluorescence value of the decrease in emission spectra was corrected according to the relationship:
where Fc and Fm are the corrected and measured fluorescence, respectively. A1 and A2 are the absorbance of tested compounds at the exciting and emission wavelengths. For fluorescence quenching experiments, Stern-Volmer's equation was used (Equation 3): […]

In general, IC50 refers to the point on the concentration scale where inhibition reaches its midpoint. Lower therefore signals greater potency in that assay. In the case of “4,5-dichloro-imidazolate-1yl-gold(I)-(triphenylphosphane) [Compound 6]”, the IC50 with MDA-MB231 cells was 3.46 ± 0.29 µM; with A17 cells, 14.4 ± 0.7 µM. In addition, the “Specific enzymatic activity of TrxR” value in assay [1] is given as 1.51 ± 0.04 (8 μM) mU/mg. This substance registered a TrxR residual activity in assay [1] of 49%. For the same substance, the “binding constant with ct-DNA” value in the assay on calf thymus DNA (ct-DNA) came out at 3.44 mM⁻¹. Moreover, in the assay with EB-ct-DNA, the “EB-ct-DNA Ksv” value is 4.22 ± 0.34 10^3 M^−1.
As for “4,5-dicyano-imidazolate-1yl-gold(I)-(triphenylphosphane) [Compound 5]”, the IC50 was determined as 7.03 ± 0.76 µM in the assay with MDA-MB231 cells and 16.2 ± 0.59 µM in the assay with A17 cells. Moreover, the “Specific enzymatic activity of TrxR” value in assay [1] is on record as 1.98 ± 0.06 (8 μM) mU/mg. The same substance displayed a TrxR residual activity in assay [1] of 37%. In the assay on calf thymus DNA (ct-DNA), the “binding constant with ct-DNA” value is 1.46 mM⁻¹. The “EB-ct-DNA Ksv” value in the assay with EB-ct-DNA is 1.55 ± 0.34 10^3 M^−1.
